These results are taken from patent US20090203667A1, “PENTADIENAMIDE DERIVATIVES” (Kyowa Hakko Kirin Co., Ltd., priority 2006, published 2009).

Molecules are shown by their SMILES. Counter-ions that a name gives are not always drawn. A value given as a limit tells only on which side of the number the result lay.

Data set [1] addresses T1, vanilloid receptor (TRPV1) (Rattus norvegicus, UniProt O35433).
T1 construct: The spinal cord was extirpated from an SPF/VAF rat; from tissue; host or cells: rat spinal cord membrane specimen (SPF/VAF rat, Charles River Laboratories Japan Inc.)
In words: [3H]Resiniferatoxin ([3H]RTX) binding experiment using rat spinal cord. To be noted: rat spinal cord membrane specimen, 37° C., 60 minutes; read-out: IC50 of [3H]RTX specific binding. As to the method: [^3H]Resiniferatoxin ([^3H]RTX) Binding Experiment Using Rat Spinal Cord
The spinal cord was extirpated from an SPF/VAF rat (Charles River Laboratories Japan Inc.) and homogenized in an ice-cooled homogenization buffer (10 mmol/L HEPES/NaOH, 5 mmol/L KCl, 5.8 mmol/L NaCl, 2 mmol/L MgCl2, 0.75 mmol/L CaCl2, 12 mmol/L glucose, 137 mmol/L sucrose, pH 7.4). The resulting homogenate was centrifuged at 1000 g for 10 minutes at 4° C. The supernatant was centrifuged at 35000 g for 30 minutes at 4° C. The obtained precipitate was suspended in the homogenization buffer. The suspension was used as a tissue membrane specimen, and the protein concentration was determined using a protein assay staining solution (Bio-Rad Laboratories, US). The thus prepared specimen was stored at −80° C.
The known method [The Journal of Pharmacology and Experimental Therapeutics, 267: 728-733 (1993)] was modified and the modified method was performed. 400 μL of a membrane specimen solution (protein amount: about 50 μg) obtained by diluting the prepared specimen with an assay buffer (10 mmol/L HEPES/NaOH, 5 mmol/L KCl, 5.8 mmol/L NaCl, 2 mmol/L MgCl2, 0.75 mmol/L CaCl2, 12 mmol/L glucose, 137 mmol/L sucrose, 0.25 mg/mL bovine serum albumin, pH 7.4), 50 μL of a test compound solution, and 50 μL of [^3H]RTX (PerkinElmer Life Sciences Inc., US) were mixed and the mixture was incubated at 37° C. for 60 minutes. The reaction mixture was transferred on ice, and 50 μL of previously ice-cooled 2 mg/mL α1 acid glycoprotein (Sigma) was added thereto, and then, the mixture was centrifuged at 12000 g for 15 minutes at 4° C. A procedure in which 0.4 mL of the assay buffer was added to the obtained precipitate and the mixture was centrifuged at 12000 g for 15 minutes at 4° C. was performed twice. The precipitate obtained by the centrifugation was suspended in 0.5 mL of a 0.1 mol/L aqueous NaOH solution. 7 mL of Ultima Gold (Packard, US) was added to the suspension, and the radioactivity of the solution was measured using a liquid scintillation counter (LS6500: Beckman Coulter, Inc., US or TRI-CARB 2700TR: Packard, US). The [^3H]RTX binding amount in the presence of 0.1 μmol/L RTX was considered to be non-specific binding, and the specific binding was calculated by subtracting this value from the total amount of [^3H]RTX binding to the membrane specimen. Then, the replacement amount of the [^3H]RTX specific binding in the presence of the compound to the [^3H]RTX specific binding amount in the absence of the compound was calculated in percent. The IC50 value of the compound in this experiment was obtained from a logistic equation.
The logistic equation was fit to the following equation (equation 205 in the program) in the curve regression program XLfit (IDBS Inc.).
Y: Inhibition ratio X: Concentration of test compound

Data set [2] deals with entrapment nerve injury rat. In words: Neuropathic pain inhibitory activity in entrapment nerve injury rat (von Frey pain threshold). The data set is classed as in vivo. To be noted: orally administered, dose of 20 mg/kg or less, measured after 1 hour, von Frey filaments. From the text: Neuropathic Pain Inhibitory Activity of Compound in Entrapment Nerve Injury Rat
The method of Mosconi, Kruger et al. (Pain, vol. 64, pp. 37-57 (1996)) was modified partially and an entrapment nerve injury rat was produced.
By using a male Crl:CD(SD) rat, the sciatic nerve of the left hind limb was exfoliated under pentobarbital anesthesia, and the exfoliated region was covered with a polyethylene tube (trade name: Intramedic, size: PE-60, manufactured by Becton Dickinson and Company) with a length of 2 mm. On days 14 to 21 after the surgery, the rat was placed in a stainless-steel connected cage (750 mm (length)×210 mm (depth)×170 mm (height)) consisting of 5 cages connected in a row and having a mesh floor and was acclimated to the environment for at least 20 minutes, and then, the pain was evaluated.
The pain was evaluated using von Frey filaments (trade name: touch test sensory evaluator, Model number: model 58011, manufactured by Muromachi Kikai), and the results were calculated as a pain threshold. That is, by using a von Frey filament of different stimulation intensity, stimulation was given to the paw at the injured side of the entrapment nerve injury rat, and the stimulation intensity at which the paw was withdrawn was obtained. Then, the pain threshold (paw withdrawal threshold) (g) was calculated by the up down method of Dixon [Annual Review of Pharmacology and Toxicology, vol. 20, pp. 441-462 (1980)]. Incidentally, the pain threshold of a normal rat was from 10 to 12 g on an average.
In the evaluation of the test compound, a rat having a 50% pain threshold of less than 4 g was used, and the test compound was dissolved in a 0.5% aqueous methyl cellulose solution and orally administered at a dose of 5 mL/kg. After 1 hour, by using von Frey filaments, the pain threshold was measured.

T1 sequence (O35433 whole entry): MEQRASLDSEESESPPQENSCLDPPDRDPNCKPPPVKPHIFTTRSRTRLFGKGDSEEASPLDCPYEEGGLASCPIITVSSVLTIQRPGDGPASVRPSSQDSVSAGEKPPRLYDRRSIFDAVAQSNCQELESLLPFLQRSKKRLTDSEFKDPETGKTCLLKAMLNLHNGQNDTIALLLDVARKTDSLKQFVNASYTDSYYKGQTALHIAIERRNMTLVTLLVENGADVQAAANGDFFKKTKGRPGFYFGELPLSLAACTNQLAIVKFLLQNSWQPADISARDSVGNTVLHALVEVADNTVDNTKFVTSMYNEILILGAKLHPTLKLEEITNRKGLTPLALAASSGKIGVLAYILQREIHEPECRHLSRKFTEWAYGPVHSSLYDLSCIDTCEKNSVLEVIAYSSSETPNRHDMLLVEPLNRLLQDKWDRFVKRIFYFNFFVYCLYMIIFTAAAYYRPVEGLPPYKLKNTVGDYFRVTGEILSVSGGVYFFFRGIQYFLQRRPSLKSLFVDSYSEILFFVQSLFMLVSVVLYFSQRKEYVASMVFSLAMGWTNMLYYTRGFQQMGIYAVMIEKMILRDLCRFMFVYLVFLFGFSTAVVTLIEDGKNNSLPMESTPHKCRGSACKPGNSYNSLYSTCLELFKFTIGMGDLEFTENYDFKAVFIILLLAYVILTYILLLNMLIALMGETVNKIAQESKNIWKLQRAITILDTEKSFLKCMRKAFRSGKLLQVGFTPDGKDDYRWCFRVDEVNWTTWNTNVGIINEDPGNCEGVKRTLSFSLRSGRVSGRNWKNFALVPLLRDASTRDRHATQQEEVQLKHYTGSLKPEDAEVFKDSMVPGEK

For `CC(C)Oc1ccc(/C(=C\C=C\C(=O)Nc2cccc3[nH]ncc23)c2ccc(C(F)(F)F)cc2)cc1` [Compound 178, (2E,4Z)-N-(1H-Indazol-4-yl)-5-(4-isopropoxyphenyl)-5-[4-(trifluoromethyl)phenyl]-2,4-pentadienamide], the 50% inhibitory concentration (IC50) (as a rule, the concentration that inhibits the measured activity by half) in data set [1] was less than 100 nM. The “pain threshold (paw withdrawal threshold)” value (shortened to “pain threshold”) in data set [2] was “significantly increases the pain threshold”. Take `O=C(/C=C/C=C(\c1ccccc1)c1ccc(C(F)(F)F)cc1)Nc1cccc2cnccc12` [Compound 59, (2E,4E)-N-(Isoquinolin-5-yl)-5-phenyl-5-[4-(trifluoromethyl)phenyl]-2,4-pentadienamide]: the melting point (usually the temperature of the solid-liquid transition) is 114 to 115 °C. The IC50 in data set [1] was less than 100 nM. With `CCOc1ccc(/C(=C\C=C\C(=O)Nc2ccccc2C(O)CO)c2ccc(C(F)(F)F)cc2)cc1` (stereo not drawn) [Compound 163, (2E,4Z)-N-[2-(1,2-Dihydroxyethyl)phenyl]-5-(4-ethoxyphenyl)-5-[4-(trifluoromethyl)phenyl]-2,4-pentadienamide], in data set [1], the IC50 is less than 100 nM. Consider `CN(C)c1ccc(/C(=C\C=C\C(=O)Nc2cccc3c2CC(O)CN3)c2ccc(C(F)(F)F)cc2)cc1.Cl.Cl` (stereo not drawn) [Compound 270, (2E,4Z)-5-[4-(N,N-Dimethylamino)phenyl]-N-(3-hydroxy-1,2,3,4-tetrahydroquinolin-5-yl)-5-[4-(trifluoromethyl)phenyl]-2,4-pentadienamide Dihydrochloride], for which the IC50 in data set [1] is less than 100 nM. For the same compound, the “pain threshold” value in data set [2] was “significantly increases the pain threshold”. On to `O=C(/C=C/C=C(\c1ccc(OC2COC2)cc1)c1ccc(C(F)(F)F)cc1)Nc1cccc2c1CC(O)C(=O)N2` (stereo not drawn) [Compound 314, (2E,4Z)-N-(3-Hydroxy-2-oxo-1,2,3,4-tetrahydroquinolin-5-yl)-5-[4-(oxetan-3-yloxy)phenyl]-5-[4-(trifluoromethyl)phenyl]-2,4-pentadienamide], for which the concentration for half-maximal inhibition (IC50) in data set [1] was less than 100 nM. The “pain threshold” value in data set [2] is “significantly increases the pain threshold”.

Compound `O=C(/C=C/C=C(c1ccc(C(F)(F)F)cc1)c1ccc(C(F)(F)F)cc1)Nc1cccc2ccc(O)cc12` [Compound 10, (E)-N-(7-Hydroxynaphthalen-1-yl)-5,5-bis[4-(trifluoromethyl)phenyl]-2,4-pentadienamide] showed a melting point of 249 to 251 °C. Also, the IC50 in data set [1] was less than 100 nM. `O=C(/C=C/C=C(c1ccc(C(F)(F)F)cc1)c1ccc(C(F)(F)F)cc1)Nc1cccc2cnccc12` [Compound 11, (E)-N-(Isoquinolin-5-yl)-5,5-bis[4-(trifluoromethyl)phenyl]-2,4-pentadienamide] returned a melting point of 164 to 166 °C. In addition, in data set [1], the IC50 was less than 100 nM. For the compound `CCOc1ccc(/C(=C\C=C\C(=O)Nc2cccc3c2CC(O)CN3)c2ccc(C(F)(F)F)cc2)cc1` (stereo not drawn) [Compound 240, (2E,4Z)-5-(4-Ethoxyphenyl)-N-(3-hydroxy-1,2,3,4-tetrahydroquinolin-5-yl)-5-[4-(trifluoromethyl)phenyl]-2,4-pentadienamide monohydrochloride], the 50% inhibitory concentration (IC50) in data set [1] is less than 100 nM. In addition, in data set [2], the “pain threshold” value is “significantly increases the pain threshold”. For the compound `O=C(/C=C/C=C(c1ccc(C(F)(F)F)cc1)c1ccc(C(F)(F)F)cc1)Nc1cncc(CO)c1` [Compound 25, (E)-N-[(5-Hydroxymethyl)pyridin-3-yl]-5,5-bis[4-(trifluoromethyl)phenyl]-2,4-pentadienamide], the melting point was 255 to 257 °C. Also, the 50% inhibitory concentration (IC50) in data set [1] is less than 100 nM. Turning to `CCOc1ccc(/C(=C\C=C\C(=O)Nc2cccc3c2CC(O)C(=O)N3)c2ccc(Cl)cc2)cc1` (stereo not drawn) [Compound 310, (2E,4E)-5-(4-Chlorophenyl)-5-(4-ethoxyphenyl)-N-(3-hydroxy-2-oxo-1,2,3,4-tetrahydroquinolin-5-yl)-2,4-pentadienamide], the IC50 in data set [1] is less than 100 nM. The “pain threshold” value in data set [2] is recorded as “significantly increases the pain threshold”.

In the case of `CC(C)Oc1ccc(/C(=C\C=C\C(=O)Nc2cccc3c2CC(O)C(=O)N3)c2ccc(C(F)(F)F)cc2)cc1` (stereo not drawn) [Compound 229, (2E,4Z)-N-(3-Hydroxy-2-oxo-1,2,3,4-tetrahydroquinolin-5-yl)-5-(4-isopropoxyphenyl)-5-[4-(trifluoromethyl)phenyl]-2,4-pentadienamide], the IC50 in data set [1] was less than 100 nM. Moreover, the “pain threshold” value in data set [2] is “significantly increases the pain threshold”. Regarding `N#Cc1cccc(/C(=C\C=C\C(=O)Nc2cccc3cnccc23)c2ccc(C(F)(F)F)cc2)c1` [Compound 68, (2E,4Z)-5-(3-Cyanophenyl)-N-(isoquinolin-5-yl)-5-[4-(trifluoromethyl)phenyl]-2,4-pentadienamide], the melting point was in the range of 118 to 119 °C. Moreover, in data set [1], the concentration for half-maximal inhibition (IC50) was less than 100 nM. With `CCOc1ccc(/C(=C\C=C\C(=O)Nc2cccc3c2CC(O)C(=O)N3)c2ccc(C(F)(F)F)cc2)cc1` (stereo not drawn) [Compound 257, (2E,4Z)-N-(3-Hydroxy-2-oxo-1,2,3,4-tetrahydroquinolin-5-yl)-5-(4-ethoxyphenyl)-5-[4-(trifluoromethyl)phenyl]-2,4-pentadienamide], the IC50 in data set [1] was less than 100 nM. For the same compound, the “pain threshold” value in data set [2] is given as “significantly increases the pain threshold”. For the compound `O=C(/C=C/C=C(/c1ccc(C(F)(F)F)cc1)c1ccco1)Nc1cccc2cnccc12` [Compound 63, (2E,4Z)-5-(Furan-2-yl)-N-(isoquinolin-5-yl)-5-[4-(trifluoromethyl)phenyl]-2,4-pentadienamide], the “pain threshold” value in data set [2] is “significantly increases the pain threshold”. For `Cc1cccc(/C(=C\C=C\C(=O)Nc2cccc3c2CC(O)C(=O)N3)c2ccc(C(F)(F)F)cc2)c1` (stereo not drawn) [Compound 188, (2E,4Z)-N-(3-Hydroxy-2-oxo-1,2,3,4-tetrahydroquinolin-5-yl)-5-(3-methylphenyl)-5-[4-(trifluoromethyl)phenyl]-2,4-pentadienamide], the half-inhibitory concentration (IC50) in data set [1] is less than 100 nM. In addition, in data set [2], the “pain threshold” value was “significantly increases the pain threshold”. For `CC(C)(C)Oc1ccc(/C(=C\C=C\C(=O)Nc2cccc3c2CC(O)C(=O)N3)c2ccc(C(F)(F)F)cc2)cc1` (stereo not drawn) [Compound 191, (2E,4Z)-5-(4-tert-Butoxyphenyl)-N-(3-hydroxy-2-oxo-1,2,3,4-tetrahydroquinolin-5-yl)-5-[4-(trifluoromethyl)phenyl]-2,4-pentadienamide] the same measures were less than 100 nM and “significantly increases the pain threshold”.
